According to patent US4207419A, “Prostaglandin derivatives” (American Home Products Corporation, priority 1977, dated 1980):

Columns and labels:
[1] = Hypotensive effects in the anesthetized dog by the intravenous route; format: in vivo; settings: average of two animals
Protocol: In the use of the compounds of the invention to produce hypotensive effects in warm-blooded animals, administration by the injectable route is preferred, preferably the intravenous route.
Thus in the anesthetized dog by the intravenous route the dose to produce hypotension is from about 1 μg/kg. to about 200 μg/kg. and preferably from about 10 μg/kg. to about 100 μg/kg. Using this procedure the following results were obtained:
*Average of two animals.

[2] = tested on: bronchoconstricting effects of a standard dose of acetylcholine; assay: Bronchodilation upon aerosol inhalation, method of Rosenthale et al.; format: in vivo; settings: guinea pig, i.v. acetylcholine producing ca. 30% bronchoconstriction
Text: In using the compounds of the invention to produce bronchodilating effects in warm-blooded animals, they may be administered in a variety of dosage forms: oral, injectable, and aerosol inhalation. Aerosol inhalation is a preferred method because of its rapid onset of action, great potency, and specificity of action. The particular dosage to obtain the bronchodilating effect will vary with the particular compound employed, the particular animal involved, and the degree of bronchodilation desired. In the guinea pig, by aerosol inhalation, the dose to produce bronchodilation is from about 0.15 micrograms to about 25 micrograms, and preferably from about 0.15 to about 15 micrograms. The bronchodilation produced upon aerosol inhalation can be observed by the method of Rosenthale et al., J. Pharmacol. Exp. Ther., 178, 541 (1971). Using this procedure the following results were obtained:
*The dose (i.v. of acetylcholine which produces a ca. 30%

Structure (SMILES): CC(C)(c1ccccc1)[C@H](O)CC[C@H]1CCC(=O)[C@@H]1CCCCCCC(=O)O (relative stereo) [dl-2β-[(3R)-3-Hydroxy-4,4-Dimethyl-4-Phenyl-1-Butyl]-5-Oxo-1α-Cyclopentane Heptanoic Acid]
- Δ B.P. ([1]; dose 10 μg/kg.): -14 mm. Hg.
- Δ B.P. ([1]; dose 100 μg/kg.): -26 mm. Hg.

Structure (SMILES): CC(C)(Cc1ccccc1)[C@H](O)/C=C/[C@H]1CCC(=O)[C@@H]1CCCCCCC(=O)O (relative stereo) [dl-2β-[(3R)-3-Hydroxy-4,4-Dimethyl-5-Phenyl-trans-1-Pentenyl]-5-Oxo-Cyclopentane Heptanoic Acid]
- Percent Inhibition of the bronchoconstricting effects of a standard dose of acetylcholine ([2]; dose 0.15 μg): 46%
- Percent Inhibition of the bronchoconstricting effects of a standard dose of acetylcholine ([2]; dose 1.50 μg): 66%
- Percent Inhibition of the bronchoconstricting effects of a standard dose of acetylcholine ([2]; dose 15 μg): 60%

Structure (SMILES): CC(C)(c1ccccc1)[C@H](O)/C=C/[C@H]1CCC(=O)[C@@H]1C/C=C\CCCC(=O)O (relative stereo) [dl-7-{2β-[(3R)-3-Hydroxy-4,4-Dimethyl-4-Phenyl-trans-1-Butenyl]-5-Oxo-1α-Cyclopentyl}-cis-5-Heptenoic Acid]
- Δ B.P. ([1]; dose 10 μg/kg.): -30 mm. Hg.
